From article PMC8872791, “MadR mediates acyl CoA-dependent regulation of mycolic acid desaturation in mycobacteria” (Proceedings of the National Academy of Sciences of the …, 2022)

Legend:
Type in all cases: binding
[1] = molecular target: T1, MadR (mycolic acid desaturase regulator, Rv0472c) (Mycobacterium tuberculosis, UniProt P9WMD9); assay: intrinsic tryptophan fluorescence quenching; EMSA shows release from desA1/desA2 promoters
[2] = molecular target: T1, MadR (mycolic acid desaturase regulator, Rv0472c); assay: intrinsic tryptophan fluorescence quenching (binds, but does not release promoter DNA)
[3] = molecular target: T1, MadR (mycolic acid desaturase regulator, Rv0472c); assay: intrinsic tryptophan fluorescence quenching

T1 sequence (P9WMD9 whole entry, looked up): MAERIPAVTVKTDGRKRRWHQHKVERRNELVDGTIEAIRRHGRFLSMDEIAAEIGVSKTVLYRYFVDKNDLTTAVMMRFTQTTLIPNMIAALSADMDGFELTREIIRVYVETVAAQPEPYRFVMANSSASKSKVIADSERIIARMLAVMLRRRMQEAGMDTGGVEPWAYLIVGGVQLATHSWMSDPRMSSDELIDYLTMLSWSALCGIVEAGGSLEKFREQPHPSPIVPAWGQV

SMILES | Kd [1] [µM] | Kd [2] [µM] | also measured
CCCCCCCCCCCCCCCCCCCCCCCC(=O)SCCNC(=O)CCNC(=O)[C@H](O)C(C)(C)COP(=O)(O)OP(=O)(O)OC[C@H]1O[C@@H](n2cnc3c(N)ncnc32)[C@H](O)[C@@H]1OP(=O)(O)O [C24:0-CoA, lignoceroyl-CoA] | 18.1 |  | 
CCCCCCCCCCCCCCCCCC(=O)SCCNC(=O)CCNC(=O)[C@H](O)C(C)(C)COP(=O)(O)OP(=O)(O)OC[C@H]1O[C@@H](n2cnc3c(N)ncnc32)[C@H](O)[C@@H]1OP(=O)(O)O [C18:0-CoA, stearoyl-CoA] | 7.73 |  | 
CCCCCCCCCCCCCCCC(=O)SCCNC(=O)CCNC(=O)[C@H](O)C(C)(C)COP(=O)(O)OP(=O)(O)OC[C@H]1O[C@@H](n2cnc3c(N)ncnc32)[C@H](O)[C@@H]1OP(=O)(O)O [C16:0-CoA, palmitoyl-CoA] | 10.7 |  | 
CCCCC/C=C\C/C=C\CCCCCCCC(=O)SCCNC(=O)CCNC(=O)[C@H](O)C(C)(C)COP(=O)(O)OP(=O)(O)OC[C@H]1O[C@@H](n2cnc3c(N)ncnc32)[C@H](O)[C@@H]1OP(=O)(O)O [C18:2-CoA, linoleoyl-CoA] |  | 9.88 | 
CCCCCCCC/C=C\CCCCCCCC(=O)SCCNC(=O)CCNC(=O)[C@H](O)C(C)(C)COP(=O)(O)OP(=O)(O)OC[C@H]1O[C@@H](n2cnc3c(N)ncnc32)[C@H](O)[C@@H]1OP(=O)(O)O [C18:1-CoA, oleoyl-CoA] |  | 9.55 | 
CCCCCCCCCCCCCC(=O)SCCNC(=O)CCNC(=O)[C@H](O)C(C)(C)COP(=O)(O)OP(=O)(O)OC[C@H]1O[C@@H](n2cnc3c(N)ncnc32)[C@H](O)[C@@H]1OP(=O)(O)O [C14:0-CoA, myristoyl-CoA] |  |  | Kd [3]: 12.4 µM
